Data published in US20260256748A1, “LANIFIBRANOR FOR USE IN THE TREATMENT OF SPLANCHNIC VASODILATATION IN A PATIENT WITH A LIVER CONDITION” (INVENTIVA, priority 2023, published 2026).

What was measured:
Type in all cases: in vivo, mouse
[1] = test system: Swiss mice with partial portal vein ligation (PPVL); assay: Hemodynamic parameters (flow superior mesenteric artery) in partial portal vein ligation (PPVL) model; details: lanifibranor 30 mg/kg daily for 7 days, started one week after ligation
Method: (§1) Experiments were carried out using Swiss mice (7 to 10 animals per groups). Portal hypertension was induced using the partial portal vein ligation (PPVL) model. A midline abdominal incision was performed and the portal vein was separated from the surrounding tissue. A ligature (silk cut 5-0) was tied around both portal vein and adjacent 27-gauge blunt-tipped needle. Subsequent removal of the needle yielded a calibrated stenosis of the portal vein. One week after the ligation mice received daily lanifibranor (10 mg/kg or 30 mg/kg) or vehicle in a therapeutic setting for 7 days. The effect of lanifibranor on angiogenesis was evaluated by analyzing hepatic and systemic hemodynamics, serum, hepatic and mesenteric histology. The vascular corrosion casting is a technic allowing the capture of the 3D structure of the vascular bed. Briefly the vascular corrosion casts were obtained by inserting, after euthanasia, a 26-gauge catheter into the ileocolic vein, which was then perfused with Batson n°17 solution. The soft tissue was dissolved overnight in a 25% potassium hydroxide solution. The vascular corrosion casts of the venous mesenteric vasculature were analyzed using μCT.

[2] = test system: Swiss mice with partial portal vein ligation (PPVL); assay: Immunohistochemistry staining for CD34 (angiogenesis and vascular expansion) in mesenteric area in PPVL model
Method: as §1, with “μCT. Evaluation of the vasculature system with an immunohistochemistry staining for CD34 allow to highlight the increase of blood vessels in the mesenteric area in PPVL animals. […]” for “μCT.”

[3] = test system: Swiss mice with partial portal vein ligation (PPVL); assay: Corrosion vascular casting of venous mesenteric vasculature analyzed by μCT in PPVL model; details: for mesenteric vascular wall thickness: control 20.31, PPVL 37.53
Method: as §1

[4] = test system: Swiss mice with partial portal vein ligation (PPVL); assay: Spleen weight in partial portal vein ligation (PPVL) model; details: for spleen weight: control 0.38, PPVL 0.63; for reduction of spleen weight: control 0.38, PPVL 0.63% body weight
Method: as §1

`O=C(O)CCCc1cc2cc(Cl)ccc2n1S(=O)(=O)c1ccc2ncsc2c1` [lanifibranor, 4-[1-(1,3-benzothiazol-6-ylsulfonyl)-5-chloroindol-2-yl]butanoic acid] was tested, and the “reduction of flow superior mesenteric artery” value [1] was 51.7%, the “reduction of staining for CD34” value ([2]; 10 mg/kg daily for 7 days) was 69.5% and the “reduction of staining for CD34” value ([2]; 30 mg/kg daily for 7 days) was 135.8%. For the same compound, the “reduction of mesenteric vascular wall thickness” value ([3]; 10 mg/kg daily for 7 days) was 49.8%, the mesenteric vascular wall thickness ([3]; 10 mg/kg daily for 7 days) was 28.9 µm and the “reduction of mesenteric vascular wall thickness” value ([3]; 30 mg/kg daily for 7 days) was 52.3%. For the same compound, the mesenteric vascular wall thickness ([3]; 30 mg/kg daily for 7 days) was 28.5 µm, the “expansion of the venous mesenteric vasculature” value ([3]; lanifibranor treatment, data not shown) was “reduced” and the spleen weight ([4]; 10 mg/kg daily for 7 days) was 0.57 % body weight. The “reduction of spleen weight” value ([4]; 10 mg/kg daily for 7 days) was 23.7%, the spleen weight ([4]; 30 mg/kg daily for 7 days) was 0.49 % body weight and the “reduction of spleen weight” value ([4]; 30 mg/kg daily for 7 days) was 56.1%.
